Several values for one entry are separate records, joined by “and”; a condition that tells them apart may be missing. Equal values may be shown once.
These molecules were tested against MAPK14 (human) (UniProt Q16539) (assay: Inhibition of LPS Stimulated TNF Production by U937 Cells). Conditions: not given.
MAPK14 (human), sequence (Q16539 whole entry, looked up): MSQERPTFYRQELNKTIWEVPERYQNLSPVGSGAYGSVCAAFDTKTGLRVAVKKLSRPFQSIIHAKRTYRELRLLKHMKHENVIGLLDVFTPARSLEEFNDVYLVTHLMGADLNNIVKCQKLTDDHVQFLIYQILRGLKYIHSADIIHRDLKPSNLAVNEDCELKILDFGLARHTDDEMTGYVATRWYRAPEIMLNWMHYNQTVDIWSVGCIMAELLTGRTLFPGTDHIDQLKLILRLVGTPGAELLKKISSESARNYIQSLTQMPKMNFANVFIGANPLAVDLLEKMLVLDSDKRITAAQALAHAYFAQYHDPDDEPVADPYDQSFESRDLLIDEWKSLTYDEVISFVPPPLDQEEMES

IC50 | Structure (SMILES)
2.71 µM | O=C(NCCc1[nH]nc(-c2ccc(F)cc2)c1-c1ccncc1)Nc1ccc(F)cc1
> 1 µM | CN(C)CCCNC(=O)NCCCc1[nH]nc(-c2ccc(F)cc2)c1-c1ccncc1
> 1 µM | CN(C(=O)N[C@H](Cc1ccccc1)c1[nH]nc(-c2ccc(F)cc2)c1-c1ccncc1)c1ccccc1
0.509 µM | CCN(CC)CCn1cc(-c2ccncc2)c(-c2ccc(F)cc2)n1
5 µM | CS(=O)(=O)NCc1[nH]nc(-c2ccc(F)cc2)c1-c1ccncc1
10 µM | COc1ccc(CC(=O)NCc2[nH]nc(-c3ccc(F)cc3)c2-c2ccncc2)cc1OC
3.27 µM | O=C(NCc1[nH]nc(-c2ccc(F)cc2)c1-c1ccncc1)c1ccc(F)c(F)c1F
2.97 µM | O=C(NCc1[nH]nc(-c2ccc(F)cc2)c1-c1ccncc1)c1ccccc1I
0.274 µM | Cc1ccc(-c2n[nH]c(C)c2-c2ccncc2)cc1
0.522 µM | Cc1n[nH]c(-c2ccc(C(F)(F)F)cc2)c1-c1ccncc1
0.87 µM | CC(=O)OC(C)(C)C(=O)N[C@@H](C)c1[nH]nc(-c2ccc(F)cc2)c1-c1ccncc1
> 10 µM | CN(C)CCn1cc(-c2ccnc(N(C)C)c2)c(-c2ccc(F)cc2)n1
5 µM | CCS(=O)(=O)NCc1[nH]nc(-c2ccc(F)cc2)c1-c1ccncc1
1.21 µM | Cc1cnccc1-c1c[nH]nc1-c1ccc(F)cc1
> 1 µM | COc1ccc(CC(=O)N[C@H](Cc2ccccc2)c2[nH]nc(-c3ccc(F)cc3)c2-c2ccncc2)cc1OC
2.67 µM | OCCn1cc(-c2ccnc(F)c2)c(-c2ccc(F)cc2)n1
> 1 µM | O=S(=O)(c1ccc(F)c(F)c1)N1CCC(c2[nH]nc(-c3ccc(F)cc3)c2-c2ccncc2)CC1
5 µM | CCCCS(=O)(=O)NCc1[nH]nc(-c2ccc(F)cc2)c1-c1ccncc1
> 1 µM | CC(C)(C)C(=O)N[C@H](Cc1ccccc1)c1[nH]nc(-c2ccc(F)cc2)c1-c1ccncc1
0.583 µM | OCCn1cc(-c2ccnc(CCc3ccc(F)cc3)c2)c(-c2ccc(F)cc2)n1
0.09 µM | Fc1ccc(-c2[nH]nc(NCCCN3CCOCC3)c2-c2ccncc2)cc1
0.84 µM | C[C@H](NC(=O)NCc1ccccc1)c1[nH]nc(-c2ccc(F)cc2)c1-c1ccncc1
0.5 µM | C#CCn1cc(-c2ccncc2)c(-c2ccc(F)cc2)n1
0.17 µM | Clc1ccc(-c2n[nH]cc2-c2ccncc2)cc1Cl
> 1 µM | NS(=O)(=O)c1ccc(CNC(=O)NCCCc2[nH]nc(-c3ccc(F)cc3)c2-c2ccncc2)cc1
2.42 µM | C[C@@H](NC(=O)NCc1ccccc1)c1[nH]nc(-c2ccc(F)cc2)c1-c1ccncc1
0.402 µM | Cn1cc(-c2ccncc2)c(-c2cccc(C(F)(F)F)c2)n1
> 1 µM | CNC(=O)CC[C@H](NC(=O)Nc1ccccc1F)c1[nH]nc(-c2ccc(F)cc2)c1-c1ccncc1
8.24 µM | COc1ccc(CC(=O)NCc2[nH]nc(-c3ccc(F)cc3)c2-c2ccncc2)cc1
0.8 µM and 6.02 µM | OCCn1ncc(-c2ccnc(NCc3ccc(F)cc3)c2)c1-c1ccc(F)cc1

Same assay, conditions: concentration not given here

inhibition [%] | Structure (SMILES)
39 | O=C(NCCc1[nH]nc(-c2ccc(F)cc2)c1-c1ccncc1)Nc1ccc(F)cc1
9 | COC(=O)CCCCCCC(=O)NCc1[nH]nc(-c2ccc(F)cc2)c1-c1ccncc1
13 | CCS(=O)(=O)N[C@@H](CCC(=O)NC)c1[nH]nc(-c2ccc(F)cc2)c1-c1ccncc1
13 | CSCCC(=O)NCc1[nH]nc(-c2ccc(F)cc2)c1-c1ccncc1
32 | Cc1noc(C)c1C(=O)N[C@@H](C)c1[nH]nc(-c2ccc(F)cc2)c1-c1ccncc1
54 | CC(C)NC(=O)NCCc1[nH]nc(-c2ccc(F)cc2)c1-c1ccncc1
21 | COc1ccc(NC(=O)N[C@@H](C)c2[nH]nc(-c3ccc(F)cc3)c2-c2ccncc2)c(OC)c1
83 | C[C@@H](NC(=O)c1c(F)cccc1F)c1[nH]nc(-c2ccc(F)cc2)c1-c1ccncc1
32 | C[C@H](NC(=O)c1ccc(Cl)cc1)c1[nH]nc(-c2ccc(F)cc2)c1-c1ccncc1
20 | O=C(NCc1[nH]nc(-c2ccc(F)cc2)c1-c1ccncc1)Nc1cc(Cl)cc(Cl)c1
43 | C[C@@H](NC(=O)c1cc(C(F)(F)F)ccc1F)c1[nH]nc(-c2ccc(F)cc2)c1-c1ccncc1
14 | O=C(NCc1[nH]nc(-c2ccc(F)cc2)c1-c1ccncc1)c1cnc2ccccc2n1
20 | O=C(NCc1[nH]nc(-c2ccc(F)cc2)c1-c1ccncc1)c1ccc(Cl)cc1Cl
60 | C[C@H](NS(=O)(=O)C[C@]12CC[C@@H](CC1=O)C2(C)C)c1[nH]nc(-c2ccc(F)cc2)c1-c1ccncc1
75 | C[C@@H](NS(=O)(=O)c1cc(Cl)c(Cl)s1)c1[nH]nc(-c2ccc(F)cc2)c1-c1ccncc1
80 | CCCCOc1ccc(S(=O)(=O)N[C@@H](C)c2[nH]nc(-c3ccc(F)cc3)c2-c2ccncc2)cc1
63 | C[C@@H](NC(=O)c1ccc(C(F)(F)F)cc1)c1[nH]nc(-c2ccc(F)cc2)c1-c1ccncc1
24 | COc1ccc(OC)c(S(=O)(=O)N2CCC(c3[nH]nc(-c4ccc(F)cc4)c3-c3ccncc3)CC2)c1
23 | CS(=O)(=O)c1ccccc1S(=O)(=O)NCc1[nH]nc(-c2ccc(F)cc2)c1-c1ccncc1
28 | C[C@H](NC(=O)Cc1cccs1)c1[nH]nc(-c2ccc(F)cc2)c1-c1ccncc1
37 | C[C@H](NC(=O)N1CCOCC1)c1[nH]nc(-c2ccc(F)cc2)c1-c1ccncc1

inhibition [%] | Structure (SMILES)
54 | CCCOC(=O)N[C@H](C)c1[nH]nc(-c2ccc(F)cc2)c1-c1ccncc1
25 | O=S(=O)(c1ccc(Cl)cc1)N1CCC(c2[nH]nc(-c3ccc(F)cc3)c2-c2ccncc2)CC1
55 | C[C@H](NS(=O)(=O)c1ccccc1C(F)(F)F)c1[nH]nc(-c2ccc(F)cc2)c1-c1ccncc1
28 | O=C(NCc1[nH]nc(-c2ccc(F)cc2)c1-c1ccncc1)NC(=O)c1ccccc1
21 | CCc1ccccc1NC(=O)NCc1[nH]nc(-c2ccc(F)cc2)c1-c1ccncc1
18 | COc1cccc(CC(=O)N[C@H](C)c2[nH]nc(-c3ccc(F)cc3)c2-c2ccncc2)c1
36 | O=C(NCCCc1[nH]nc(-c2ccc(F)cc2)c1-c1ccncc1)NCC1CC1
21 | COc1ccc(CC(=O)N[C@H](Cc2ccccc2)c2[nH]nc(-c3ccc(F)cc3)c2-c2ccncc2)cc1OC
67 | O=C(NCc1[nH]nc(-c2ccc(F)cc2)c1-c1ccncc1)C(F)(F)F
15 | C[C@H](NC(=O)c1cccc(C(F)(F)F)c1F)c1[nH]nc(-c2ccc(F)cc2)c1-c1ccncc1
21 | CC(C)=CC(=O)N[C@@H](C)c1[nH]nc(-c2ccc(F)cc2)c1-c1ccncc1
29 | CCCCOc1ccc(S(=O)(=O)NCCc2[nH]nc(-c3ccc(F)cc3)c2-c2ccncc2)cc1
29 | C[C@H](NC(=O)N[C@@H](C)c1[nH]nc(-c2ccc(F)cc2)c1-c1ccncc1)c1ccccc1
51 | C[C@H](NC(=O)N(C)c1ccccc1)c1[nH]nc(-c2ccc(F)cc2)c1-c1ccncc1
32 | C[C@@H](NC(=O)C(C)(C)C)c1[nH]nc(-c2ccc(F)cc2)c1-c1ccncc1
24 | Cn1cnc(S(=O)(=O)NCc2[nH]nc(-c3ccc(F)cc3)c2-c2ccncc2)c1
88 | C[C@H](NS(=O)(=O)c1ccc(Cl)cc1)c1[nH]nc(-c2ccc(F)cc2)c1-c1ccncc1
65 | C[C@H](NS(=O)(=O)c1cc(Cl)cc(Cl)c1)c1[nH]nc(-c2ccc(F)cc2)c1-c1ccncc1
29 | O=S(=O)(c1ccccc1C(F)(F)F)N1CCC(c2[nH]nc(-c3ccc(F)cc3)c2-c2ccncc2)CC1
20 | CC1(C)[C@H]2CC[C@@]1(CS(=O)(=O)NCc1[nH]nc(-c3ccc(F)cc3)c1-c1ccncc1)C(=O)C2
78 | O=S(=O)(NCc1[nH]nc(-c2ccc(F)cc2)c1-c1ccncc1)c1ccc(F)c(Cl)c1

inhibition [%] | Structure (SMILES)
90 | C[C@@H](NS(=O)(=O)c1ccc(C#N)cc1)c1[nH]nc(-c2ccc(F)cc2)c1-c1ccncc1
50 | CCNC(=O)N[C@@H](C)c1[nH]nc(-c2ccc(F)cc2)c1-c1ccncc1
87 | Cc1c(C)c(S(=O)(=O)N[C@@H](C)c2[nH]nc(-c3ccc(F)cc3)c2-c2ccncc2)c(C)c2c1OC(C)(C)CC2
8 | O=C(NCc1[nH]nc(-c2ccc(F)cc2)c1-c1ccncc1)c1ccco1
31 | O=S(=O)(c1cccc(Cl)c1)N1CCC(c2[nH]nc(-c3ccc(F)cc3)c2-c2ccncc2)CC1
5 | CCS(=O)(=O)N[C@H](Cc1ccccc1)c1[nH]nc(-c2ccc(F)cc2)c1-c1ccncc1
31 | Cc1ccc(S(=O)(=O)N[C@@H](Cc2ccccc2)C(=O)N[C@@H](C)c2[nH]nc(-c3ccc(F)cc3)c2-c2ccncc2)cc1
14 | O=C(NCc1[nH]nc(-c2ccc(F)cc2)c1-c1ccncc1)[C@H]1CCCN1C(=O)OCC1c2ccccc2-c2ccccc21
65 | CCCOC(=O)NCc1[nH]nc(-c2ccc(F)cc2)c1-c1ccncc1
50 | CNC(=O)N[C@H](C)c1[nH]nc(-c2ccc(F)cc2)c1-c1ccncc1
95 | C[C@@H](NS(=O)(=O)c1ccc(-c2ccon2)s1)c1[nH]nc(-c2ccc(F)cc2)c1-c1ccncc1
95 | C[C@H](NS(=O)(=O)c1ccc(-c2ccon2)s1)c1[nH]nc(-c2ccc(F)cc2)c1-c1ccncc1
36 | C[C@@H](NC(=O)c1cccnc1)c1[nH]nc(-c2ccc(F)cc2)c1-c1ccncc1
86 | C[C@@H](NC(=O)c1c(F)cccc1C(F)(F)F)c1[nH]nc(-c2ccc(F)cc2)c1-c1ccncc1
20 | COC(=O)CCCC(=O)NCc1[nH]nc(-c2ccc(F)cc2)c1-c1ccncc1
67 | CCCCOc1ccc(S(=O)(=O)N[C@H](C)c2[nH]nc(-c3ccc(F)cc3)c2-c2ccncc2)cc1
45 | C[C@H](NC(=O)c1ccc(F)cc1F)c1[nH]nc(-c2ccc(F)cc2)c1-c1ccncc1
22 | C[C@H](NC(=O)c1cccc(C#N)c1)c1[nH]nc(-c2ccc(F)cc2)c1-c1ccncc1
36 | C[C@@H](NC(=O)c1ccc(Cl)cc1)c1[nH]nc(-c2ccc(F)cc2)c1-c1ccncc1
15 | Cc1c(Cl)cccc1S(=O)(=O)NCc1[nH]nc(-c2ccc(F)cc2)c1-c1ccncc1
71 | Cc1c(Cl)cccc1S(=O)(=O)N[C@H](C)c1[nH]nc(-c2ccc(F)cc2)c1-c1ccncc1

Reference: the Kinase Knowledgebase extract (Sharma et al. 2016)
